Source: patent US6169181A, “Compounds useful to treat retroviral infections” (Pharmacia & Upjohn Company, priority 1998, dated 2001)
Several values for one entry are separate records, joined by “and”; a condition that tells them apart may be missing. Equal values may be shown once. Where a name gives a salt, the structure may show the parent alone.

Tests used:
[1] = molecular target: T1, HIV-1 protease (Human immunodeficiency virus type 1 group M subtype B, UniProt P04585); assay: biochemical; conditions: Table I, read-out: Protease % Inhib; for inhibition at 0.37 µM: Dose 0.370 μM; for inhibition at 1.1 µM: Dose 1.100 μM; for inhibition at 3.3 µM: Dose 3.300 μM
How it was run: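 A substrate biotinylated at the N-terminal arginine and FITC-labelled at the C-terminal lysine was incubated with HIV-1 protease (10 μl of 0.1 μM) and compound for 1 h in the dark at room temperature. Buffer was 0.1 M sodium acetate pH 5.5, 1.0 M NaCl, 0.05% NP-40. Labelled product was separated from substrate using streptavidin beads and filtration, and the fluorescence gave percent inhibition.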

[2] = molecular target: T1, HIV-1 protease; assay: biochemical; conditions: Table I; read-out: HIV Protease FITC Assay Ki
How it was run: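 Biotinylated, FITC-labelled peptide substrate cleaved in 0.1 M sodium acetate pH 5.5, 1.0 M NaCl, 0.05% NP-40, room temperature. Filtered labelled product read by fluorescence; nonlinear least-squares fit.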

SMILES | inhibition at 0.123 µM [1] | inhibition at 0.37 µM [1] | inhibition at 1.1 µM [1] | inhibition at 3.3 µM [1] | inhibition at 10 µM [1] | inhibition at 30 µM [1] | Ki [2] | inhibition at 3.39 µM ([1]; Dose 3.390 μM)
O=c1oc(C(CC2CC2)CC2CC2)cc(O)c1C(c1cccc(NS(=O)(=O)c2ncc[nH]2)c1)C1CC1 (centres unmarked) [Example 102, N-(3-{Cyclopropyl-[6-(2-cyclopropyl-1-cyclopropylmethyl-ethyl)-4-hydroxy-2-oxo-2H-pyran-3-yl]-methyl}-phenyl)-1H-imidazole-2-sulfonamide] | 87.1% | 92.7% | 102% | 110% | 117% | 108% | 0.7 nM | 
O=c1oc(C(CC2CC2)CC2CC2)cc(O)c1C(c1cccc(NS(=O)(=O)c2ccc3ccccc3n2)c1)C1CC1 (centres unmarked) [Example 103, N-(3-{Cyclopropyl-[6-(2-cyclopropyl-1-cyclopropylmethyl-ethyl)-4-hydroxy-2-oxo-2H-pyran-3-yl]-methyl}-phenyl)-2-quinolinesulfonamide] | 65.5% | 82.6% | 96.9% | 100% | 105% | 96% | 1.72 nM | 
CCC(CCOCCOC)c1cc(O)c(C(c2cccc(NS(=O)(=O)c3ccc(C#N)cc3)c2)C2CC2)c(=O)o1 (centres unmarked) [Example 106, 4-Cyano-N-(3-{cyclopropyl-[6-(1-ethyl-3-{2-methoxy-ethoxy}-propyl)-4-hydroxy-2-oxo-2H-pyran-3-yl]-methyl}-phenyl)-benzenesulfonamide] | 60.9% | 86.6% | 93.7% | 98.9% | 99% | 106% | 3.29 nM | 
CCC(CCNS(=O)(=O)c1cn(C)cn1)c1cc(O)c(C(c2cccc(NS(=O)(=O)c3cn(C)cn3)c2)C2CC2)c(=O)o1 (centres unmarked) [Example 107, N-(3-{Cyclopropyl-[6-(1-ethyl-3-{1-methyl-1H-imidazole-4-sulfonylamino}-propyl)-4-hydroxy-2-oxo-2H-pyran-3-yl]-methyl}-phenyl)-1-methyl-1H-imidazole-4-sulfonamide] | 92.7% | 99.2% | 105% | 103% | 110% | 103% | 0.89 nM and 0.7 nM | 
CCC(CCBr)c1cc(O)c(C(c2cccc(NS(=O)(=O)c3cn(C)cn3)c2)C2CC2)c(=O)o1 (centres unmarked) [Example 108, N-(3-{[6-(3-Bromo-1-ethyl-propyl)-4-hydroxy-2-oxo-2H-pyran-3-yl]-cyclopropyl-methyl}-phenyl)-1-methyl-1H-imidazole-4-sulfonamide] | 103% | 102% | 102% |  | 108% | 106% | 0.16 nM | 102%
CCC(CCNC(=O)CCCCCCC(=O)N(C)CCS(=O)(=O)O)c1cc(O)c(C(c2cccc(NS(=O)(=O)c3cn(C)cn3)c2)C2CC2)c(=O)o1 (centres unmarked) [Example 110, 2-[[8-[[3-[3-[Cyclopropyl[3-[[(1-methyl-1H-imidazol-4-yl)sulfonyl]amino]phenyl]methyl]-4-hydroxy-2-oxo-2H-pyran-6-yl]pentyl]amino]-1,8-dioxooctyl]methylamino]-ethane sulfonic acid, monosodium salt] | 77.9% | 82.7% | 95.1% | 99.1% | 99.2% | 101% | 3.26 nM and 3.63 nM | 
CCC(Cc1ccccc1)c1cc(O)c(C(c2cccc(NS(=O)(=O)c3cn(C)cn3)c2)C2CC2)c(=O)o1 (centres unmarked) [Example 136, N-(3-{Cyclopropyl-[6-(1-ethylphenethyl)-4-hydroxy-2-oxo-2H-pyran-3-yl]-methyl}-phenyl)-1-methyl-1H-imidazole-4-sulfonamide] | 71.7% | 85.7% | 99% | 101% | 102% | 102% | 1.32 nM | 
CCC(CC1CCOCC1)c1cc(O)c(C(c2cccc(NS(=O)(=O)c3nccn3C)c2)C2CC2)c(=O)o1 (centres unmarked) [Example 145, N-(3-{Cyclopropyl-[6-(1-(tetrahydropyran-4-ylmethyl)-propyl)-4-hydroxy-2-oxo-2H-pyran-3-yl]-methyl}-phenyl)-1-methyl-1H-imidazole-2-sulfonamide] | 73.6% | 89.8% | 99.7% | 94.8% | 96.8% | 88% | 0.49 nM | 
